Measured values as given in ChEMBL document CHEMBL1201862, “PubChem BioAssay data set” (2004).
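Method: 48-hour compound exposure of cells in 96-well plates, five concentrations, linear interpolation of endpoints. GI50 marks 50% less growth.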 Calls of active or inactive are those of the source. Rule as the data show it: active = GI50 up to about 1.1 µM and inactive = higher.

Assays:
Assay in all cases: NCI anticancer screen, dose series, 48 h
786-0 = system: 786-0
A549 = system: A549
CAKI-1 = system: CAKI-1
CCRF-CEM = system: CCRF-CEM
DU-145 = system: DU-145
HT-29 = system: HT-29
Hs-578T = system: Hs-578T
KM12 = system: KM12
MOLT-4 = system: MOLT-4
NCI-H226 = system: NCI-H226
OVCAR-5 = system: OVCAR-5
SF-539 = system: SF-539
SK-MEL-5 = system: SK-MEL-5
SK-OV-3 = system: SK-OV-3
SNB-19 = system: SNB-19
SNB-75 = system: SNB-75
T47D = system: T47D
U-251 = system: U-251
UACC-62 = system: UACC-62
UO-31 = system: UO-31

Measured: GI50

CCCCCCc1cc2cc(-c3csc(-c4ccc(OC)cc4)n3)c(=O)oc2cc1O
inactive: 786-0 5.28 µM | A549 16.7 µM | CAKI-1 6.73 µM | CCRF-CEM 22.6 µM | DU-145 11.7 µM | HT-29 96.2 µM | Hs-578T 15.8 µM | KM12 24.8 µM | MOLT-4 24.3 µM | NCI-H226 14 µM | OVCAR-5 26.7 µM | SF-539 12.8 µM | SK-MEL-5 9.06 µM | SK-OV-3 15.2 µM | SNB-19 9.95 µM | SNB-75 14.7 µM | T47D 7.82 µM | U-251 5.24 µM | UACC-62 6.55 µM | UO-31 6.7 µM

C=C(C)C1CCC(C(=O)O)CC1 (configuration not stated)
inactive: 786-0 > 100 µM | A549 > 100 µM | CAKI-1 > 100 µM | CCRF-CEM > 100 µM | DU-145 > 100 µM | HT-29 > 100 µM | Hs-578T > 100 µM | KM12 > 100 µM | MOLT-4 > 100 µM | NCI-H226 > 100 µM | OVCAR-5 > 100 µM | SF-539 > 100 µM | SK-MEL-5 > 100 µM | SK-OV-3 > 100 µM | SNB-19 > 100 µM | SNB-75 > 100 µM | T47D > 100 µM | U-251 > 100 µM | UACC-62 > 100 µM | UO-31 > 100 µM

NC(=O)NC(=O)C1CCCCC1C(=O)O (configuration not stated)
inactive: 786-0 > 100 µM | A549 > 100 µM | CAKI-1 > 100 µM | CCRF-CEM > 100 µM | DU-145 > 100 µM | HT-29 > 100 µM | Hs-578T > 100 µM | KM12 > 100 µM | NCI-H226 > 100 µM | OVCAR-5 > 100 µM | SF-539 > 100 µM | SK-MEL-5 > 100 µM | SK-OV-3 > 100 µM | SNB-19 > 100 µM | SNB-75 > 100 µM | T47D > 100 µM | U-251 > 100 µM | UACC-62 > 100 µM | UO-31 > 100 µM

CC1=CC2(C)C=C[C@@H]1C(=O)[C@@]1(C)CC[C@@](O)(C(C)C)[C@H]1CC2
inactive: 786-0 17.3 µM | A549 34.6 µM | CCRF-CEM 21.6 µM | DU-145 28.9 µM | HT-29 16.1 µM | Hs-578T 25.4 µM | KM12 20.3 µM | MOLT-4 24.8 µM | NCI-H226 23.4 µM | OVCAR-5 17.9 µM | SF-539 18.9 µM | SK-MEL-5 19.7 µM | SK-OV-3 23.6 µM | SNB-19 23.6 µM | SNB-75 20.9 µM | T47D 25.8 µM | U-251 18.1 µM | UACC-62 20.1 µM | UO-31 17.6 µM

CCOC(CN(C)C(=O)Nc1ccc(Cl)c(Cl)c1)OCC
inactive: 786-0 > 10 µM | A549 > 10 µM | CAKI-1 > 10 µM | CCRF-CEM > 10 µM | DU-145 > 10 µM | HT-29 > 10 µM | Hs-578T > 10 µM | KM12 > 10 µM | MOLT-4 > 10 µM | NCI-H226 > 10 µM | SF-539 > 10 µM | SK-MEL-5 > 10 µM | SK-OV-3 > 10 µM | SNB-19 > 10 µM | SNB-75 > 10 µM | T47D > 10 µM | U-251 > 10 µM | UACC-62 > 10 µM | UO-31 > 10 µM

Cc1ccc(-c2cc(-c3ccc(Cl)cc3)nc(/N=C3\C(=O)N(CN4CCOCC4)c4ccccc43)n2)cc1
inactive: 786-0 21.4 µM | A549 17.5 µM | CAKI-1 32 µM | CCRF-CEM 14.3 µM | DU-145 33.2 µM | HT-29 20.1 µM | Hs-578T 22.9 µM | KM12 22.4 µM | MOLT-4 8.69 µM | NCI-H226 35.6 µM | OVCAR-5 21.6 µM | SF-539 19.5 µM | SK-MEL-5 17.6 µM | SK-OV-3 31.1 µM | SNB-19 15.1 µM | SNB-75 25.4 µM | T47D 32.9 µM | U-251 23.7 µM | UACC-62 20 µM

Clc1ccc(/C=N/C23CC4CC(CC(C4)C2)C3)c(Cl)c1
inactive: 786-0 > 10 µM | A549 > 10 µM | CAKI-1 > 10 µM | CCRF-CEM > 10 µM | DU-145 > 10 µM | HT-29 > 10 µM | Hs-578T > 10 µM | KM12 > 10 µM | MOLT-4 > 10 µM | NCI-H226 > 10 µM | OVCAR-5 > 10 µM | SF-539 > 10 µM | SK-MEL-5 > 10 µM | SK-OV-3 > 10 µM | SNB-19 > 10 µM | SNB-75 > 10 µM | T47D > 10 µM | U-251 > 10 µM | UACC-62 > 10 µM

COc1cc(C/C=C/c2ccccc2)c(OC)cc1O [VIOLASTYRENE]
inactive: 786-0 13.8 µM | A549 43.9 µM | CAKI-1 26.2 µM | CCRF-CEM 17.1 µM | DU-145 17.3 µM | HT-29 20.9 µM | Hs-578T 30.8 µM | KM12 17 µM | MOLT-4 18.6 µM | NCI-H226 24.5 µM | OVCAR-5 24.7 µM | SF-539 17.9 µM | SK-MEL-5 23.7 µM | SNB-19 30.5 µM | SNB-75 24.6 µM | T47D 17.4 µM | U-251 18.7 µM | UACC-62 16.8 µM | UO-31 16.8 µM

CON(C)C(=O)C(Cc1ccccc1)NC(=O)OC(C)(C)C (configuration not stated)
inactive: 786-0 > 100 µM | A549 > 100 µM | CCRF-CEM > 100 µM | DU-145 > 100 µM | HT-29 > 100 µM | Hs-578T > 100 µM | KM12 > 100 µM | MOLT-4 > 100 µM | NCI-H226 > 100 µM | OVCAR-5 > 100 µM | SF-539 > 100 µM | SK-MEL-5 > 100 µM | SK-OV-3 > 100 µM | SNB-19 > 100 µM | SNB-75 > 100 µM | T47D > 100 µM | U-251 > 100 µM | UACC-62 > 100 µM | UO-31 > 100 µM

CC1OCC2OC(C)OC(C3C4=C(CC(C)(C)CC4=O)OC4=C3C(=O)CC(C)(C)C4)C2O1 (configuration not stated)
inactive: 786-0 > 100 µM | A549 > 100 µM | CAKI-1 > 100 µM | CCRF-CEM > 100 µM | DU-145 > 100 µM | HT-29 > 100 µM | Hs-578T > 100 µM | KM12 > 100 µM | MOLT-4 > 100 µM | NCI-H226 > 100 µM | OVCAR-5 > 100 µM | SF-539 > 100 µM | SK-MEL-5 > 100 µM | SK-OV-3 > 100 µM | SNB-19 > 100 µM | SNB-75 > 100 µM | T47D > 100 µM | UACC-62 > 100 µM | UO-31 > 100 µM
